{"source": "ChEMBL document CHEMBL5390201", "about": "“The Natural Alkaloid (-)-N-Hydroxyapiosporamide Suppresses Colorectal Tumor Progression as an NF-κB Pathway Inhibitor by Targeting the TAK1-TRAF6 Complex” (J Nat Prod, 2023)", "key": {"RAW264.7": {"tested_on": "RAW264.7", "test": "Inhibition of LPS-induced NFkappaB activation in mouse RAW264.7 cells assessed as inhibition of NO production preincubated for 24 hrs followed by LPS stimulation for 24 hrs", "type": "cell-based", "conditions": "dose 0.125-1 µM, time 48.0 hrs"}, "HT-29 [1]": {"tested_on": "HT-29", "test": "Induction of cell cycle arrest in human HT-29 cells assessed as accumulation of cells at S phase at 1 uM by RNase/PI staining based flow cytometry analysis (reference value: 39.34%)", "type": "functional"}, "HT-29 [2]": {"tested_on": "HT-29", "test": "Induction of apoptosis in human HT-29 cells assessed as necrotic cells at 5 uM incubated for 24 hrs by Annexin V-FITC/PI staining based flow cytometric analysis (reference value: 0.14 %)", "type": "functional"}, "HCT-116 [3]": {"tested_on": "HCT-116", "test": "Induction of cell cycle arrest in human HCT-116 cells assessed as accumulation of cells at G0/G1 phase at 10 uM by RNase/PI staining based flow cytometry analysis (reference value: 33.08 %)", "type": "functional"}, "HCT-116 [4]": {"tested_on": "HCT-116", "test": "Induction of autophagic flux in human HCT-116 cells assessed as increase in LC3I to LC3II conversion preincubated with chloroquine for 1 hr followed by compound addition and measured after 24 hrs by Western blot analysis", "type": "functional, cell-based"}, "Mus musculus [5]": {"tested_on": "Mus musculus", "test": "In vivo inhibition of NFkappaB activation in AOM/DSS-induced inflammatory bowel disease BALB/c mouse model assessed as inhibition of serum IL-8 production at 5 to 10 mg/kg, ip pretreated with AOM for 7 days further replaced with DSS for 7 days and repeated for 2 times followed by every 2 days compound treatment for […] starting from day 50 by ELISA", "type": "functional, organism-based", "conditions": "dose 5-10 mg/kg, time 21.0 day"}, "[6]": {"biological_target": "T1, Nuclear factor NF-kappa-B complex (Homo sapiens) (UniProt Q00653+P19838+Q04206)", "T1 sequence (P19838 whole entry, looked up)": "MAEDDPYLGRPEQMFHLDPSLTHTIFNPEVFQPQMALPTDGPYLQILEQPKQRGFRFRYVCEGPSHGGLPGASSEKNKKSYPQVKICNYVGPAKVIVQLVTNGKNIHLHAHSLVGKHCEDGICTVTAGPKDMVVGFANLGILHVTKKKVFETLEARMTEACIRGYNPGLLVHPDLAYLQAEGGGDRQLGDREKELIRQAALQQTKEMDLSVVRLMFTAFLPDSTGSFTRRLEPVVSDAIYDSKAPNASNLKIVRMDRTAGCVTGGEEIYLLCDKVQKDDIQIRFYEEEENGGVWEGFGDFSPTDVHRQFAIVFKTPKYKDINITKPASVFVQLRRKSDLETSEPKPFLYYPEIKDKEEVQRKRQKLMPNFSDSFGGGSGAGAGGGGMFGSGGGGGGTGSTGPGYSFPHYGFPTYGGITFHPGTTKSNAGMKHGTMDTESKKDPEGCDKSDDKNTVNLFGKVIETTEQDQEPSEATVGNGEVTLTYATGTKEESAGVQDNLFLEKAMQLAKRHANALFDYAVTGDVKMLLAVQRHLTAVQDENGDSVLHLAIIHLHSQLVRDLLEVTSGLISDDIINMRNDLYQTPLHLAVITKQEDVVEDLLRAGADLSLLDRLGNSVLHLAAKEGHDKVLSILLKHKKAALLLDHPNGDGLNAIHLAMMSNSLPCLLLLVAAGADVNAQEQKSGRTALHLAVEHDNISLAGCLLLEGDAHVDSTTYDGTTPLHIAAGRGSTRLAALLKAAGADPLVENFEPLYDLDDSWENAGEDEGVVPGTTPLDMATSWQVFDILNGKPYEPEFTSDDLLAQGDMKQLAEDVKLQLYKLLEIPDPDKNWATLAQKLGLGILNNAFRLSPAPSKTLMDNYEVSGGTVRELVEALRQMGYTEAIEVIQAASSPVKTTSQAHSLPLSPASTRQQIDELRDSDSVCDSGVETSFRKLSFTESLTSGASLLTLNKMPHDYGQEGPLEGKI", "T1 sequence (Q00653 whole entry, looked up)": "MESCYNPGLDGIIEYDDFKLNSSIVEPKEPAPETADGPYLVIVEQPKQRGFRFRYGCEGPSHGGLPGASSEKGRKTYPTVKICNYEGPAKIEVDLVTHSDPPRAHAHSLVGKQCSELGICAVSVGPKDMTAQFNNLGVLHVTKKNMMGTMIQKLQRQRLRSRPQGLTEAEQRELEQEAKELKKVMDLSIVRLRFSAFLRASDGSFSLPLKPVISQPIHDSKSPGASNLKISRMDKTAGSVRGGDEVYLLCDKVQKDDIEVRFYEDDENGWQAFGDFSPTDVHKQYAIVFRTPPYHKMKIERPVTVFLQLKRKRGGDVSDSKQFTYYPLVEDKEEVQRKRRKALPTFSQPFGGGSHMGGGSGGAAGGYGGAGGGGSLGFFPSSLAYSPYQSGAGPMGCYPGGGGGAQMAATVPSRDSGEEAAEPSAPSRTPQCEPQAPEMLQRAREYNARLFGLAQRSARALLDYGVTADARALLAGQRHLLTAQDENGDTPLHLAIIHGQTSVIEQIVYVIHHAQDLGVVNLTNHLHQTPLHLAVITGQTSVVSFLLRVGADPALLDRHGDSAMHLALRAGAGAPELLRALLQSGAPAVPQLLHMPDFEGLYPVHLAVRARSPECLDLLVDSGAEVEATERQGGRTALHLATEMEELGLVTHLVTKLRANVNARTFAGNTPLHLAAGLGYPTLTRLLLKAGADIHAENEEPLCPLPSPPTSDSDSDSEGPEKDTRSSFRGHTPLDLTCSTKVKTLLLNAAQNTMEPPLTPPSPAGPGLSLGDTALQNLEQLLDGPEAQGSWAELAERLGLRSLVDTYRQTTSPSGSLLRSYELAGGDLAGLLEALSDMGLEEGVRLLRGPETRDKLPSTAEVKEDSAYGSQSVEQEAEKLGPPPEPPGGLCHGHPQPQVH", "T1 sequence (Q04206 whole entry, looked up)": "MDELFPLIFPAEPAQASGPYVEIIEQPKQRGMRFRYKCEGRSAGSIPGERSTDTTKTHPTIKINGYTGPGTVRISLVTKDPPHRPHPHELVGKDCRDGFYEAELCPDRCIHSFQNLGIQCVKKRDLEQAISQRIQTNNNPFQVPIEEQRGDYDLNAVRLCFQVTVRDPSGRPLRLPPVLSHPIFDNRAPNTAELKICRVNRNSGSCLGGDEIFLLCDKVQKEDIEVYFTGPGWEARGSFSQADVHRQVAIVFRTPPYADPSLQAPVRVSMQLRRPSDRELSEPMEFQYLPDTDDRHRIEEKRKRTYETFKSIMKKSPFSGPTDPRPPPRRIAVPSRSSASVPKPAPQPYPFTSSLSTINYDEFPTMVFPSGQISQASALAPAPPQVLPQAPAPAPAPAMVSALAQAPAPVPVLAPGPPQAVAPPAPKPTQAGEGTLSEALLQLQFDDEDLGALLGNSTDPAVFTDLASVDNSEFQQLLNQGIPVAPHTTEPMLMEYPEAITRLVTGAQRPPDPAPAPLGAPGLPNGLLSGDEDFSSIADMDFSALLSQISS", "test": "Inhibition of NFkappaB activation in HEK293T cells transfected with Flag-tagged TRAF2 and kappaB luciferase/pTK-renilla reporters at 2 uM incubated for 6 hrs by Dual Luciferase Reporter Assay", "type": "cell-based", "conditions": "HEK-293T"}, "HT-29 [7]": {"tested_on": "HT-29", "test": "Induction of apoptosis in human HT-29 cells assessed as necrotic cells at 0.25 uM incubated for 24 hrs by Annexin V-FITC/PI staining based flow cytometric analysis (reference value: 0.14 %)", "type": "functional"}, "HCT-116 [8]": {"tested_on": "HCT-116", "test": "Antitumor activity against human HCT-116 cells xenografted in athymic nude BALB/c mouse assessed as reduction in tumor volume at 5 to 15 mg/kg, ip administered every other day and measured every other day for 16 days", "type": "functional, organism-based", "conditions": "dose 5-15 mg/kg, time 16.0 day"}, "HCT-116 [9]": {"tested_on": "HCT-116", "test": "Induction of autophagy in human HCT-116 cells transfected with GFP-LC3 assessed as increase in LC3 dot puncta at 1 to 10 uM incubated for 24 hrs by fluorescence microscopy", "type": "functional, cell-based", "conditions": "dose 1-10 µM"}, "Mus musculus [10]": {"tested_on": "Mus musculus", "test": "(§1) Anti-inflammatory activity in AOM/DSS-induced BALB/c mouse model inflammatory bowel disease assessed as reduction in tumor length at 5 to 10 mg/kg, ip pretreated with AOM for 7 days further replaced with DSS for 7 days and repeated for 2 times followed by every 2 days compound treatment for […] starting from day 50 and measured once a week", "type": "functional, organism-based", "conditions": "dose 5-10 mg/kg, time 21.0 day"}, "HCT-116 [11]": {"tested_on": "HCT-116", "test": "Cytotoxicity against human HCT-116 cells assessed as inhibition of cell growth by SRB assay", "type": "functional, cell-based", "conditions": "time 24-48 hrs, TDE = time-dependent effect"}, "HT-29 [12]": {"tested_on": "HT-29", "test": "Induction of cell cycle arrest in human HT-29 cells assessed as accumulation of cells at G0/G1 phase at 10 uM by RNase/PI staining based flow cytometry analysis (reference value: 50.73 %)", "type": "functional"}, "HT-29 [13]": {"tested_on": "HT-29", "test": "Induction of apoptosis in human HT-29 cells assessed as viable cells at 5 uM incubated for 24 hrs by Annexin V-FITC/PI staining based flow cytometric analysis (reference value: 88.3 %)", "type": "functional", "conditions": "read-out: Activity"}, "HT-29 [14]": {"tested_on": "HT-29", "test": "Induction of cell death in human HT-29 cells at 0.5 to 10 uM pretreated with Z-VAD-FMK for 1 hr followed by compound addition and measured after 24 hrs by SRB assay", "type": "functional, cell-based", "conditions": "dose 0.5-10 µM"}, "RKO": {"tested_on": "RKO", "test": "Cytotoxicity against human RKO cells assessed as decrease in cell viability incubated for 48 hrs by SRB assay", "type": "functional, cell-based"}, "HT-29 [15]": {"tested_on": "HT-29", "test": "Induction of autophagic flux in human HT-29 cells assessed as increase in LC3I to LC3II conversion preincubated with 3-methyladenine for 1 hr followed by compound addition and measured after 24 hrs by Western blot analysis", "type": "functional, cell-based"}, "HCT-116 [16]": {"tested_on": "HCT-116", "test": "Induction of apoptosis in human HCT-116 cells assessed as early apoptotic cells at 5 uM preincubated with Z-VAD-FMK for 1 hr followed by compound addition and measured after 24 hrs by Annexin V-FITC/PI staining based flow cytometric analysis (reference value: 4.75 %)", "type": "functional"}, "Mus musculus [17]": {"tested_on": "Mus musculus", "test": "In vivo inhibition of NFkappaB activation in LPS-induced BALB/c mouse model of endotoxin shock assessed as inhibition of TNF-alpha mRNA expression in liver at 5 mg/kg, ip pretreated for 4 hrs followed by LPS stimulation for 1 hr by RT-PCR analysis", "type": "functional, organism-based", "conditions": "time 5.0 hrs"}, "Mus musculus [18]": {"tested_on": "Mus musculus", "test": "as §1, with “body weight” for “tumor length”, “50 by H” for “50”, “E staining based analysis” for “measured once a week”", "type": "functional, organism-based", "conditions": "dose 5-10 mg/kg, time 21.0 day"}, "HT-29 [19]": {"tested_on": "HT-29", "test": "Induction of autophagy in human HT-29 cells assessed as increase in autophagic vesicles at 1 to 10 uM incubated for 24 hrs MDC staining-based fluorescence microscopy", "type": "functional, cell-based", "conditions": "dose 1-10 µM"}, "Mus musculus [20]": {"tested_on": "Mus musculus", "test": "In vivo inhibition of NFkappaB activation in athymic BALB/c mouse xenografted with human HT-29 cells assessed as reduction in E-selectin gene expression in tumor at 5 to 15 mg/kg, ip administered every other day and measured after 14 days by qRT-PCR analysis", "type": "functional, organism-based", "conditions": "dose 5-15 mg/kg, time 14.0 day"}, "HT-29 [21]": {"tested_on": "HT-29", "test": "Induction of cell cycle arrest in human HT-29 cells assessed as decrease in Cdc25c protein expression upto 10 uM incubated for 24 hrs by Western blot analysis", "type": "functional, cell-based"}, "[22]": {"biological_target": "T1, Nuclear factor NF-kappa-B complex (Homo sapiens)", "test": "Inhibition of NFkappaB activation in HEK293T cells transfected with HA-tagged p65 and kappaB luciferase/pTK-renilla reporters at 2 uM incubated for 6 hrs by Dual Luciferase Reporter Assay", "type": "cell-based", "conditions": "HEK-293T"}, "HT-29 [23]": {"tested_on": "HT-29", "test": "Induction of apoptosis in human HT-29 cells assessed as viable cells at 1 uM incubated for 24 hrs by Annexin V-FITC/PI staining based flow cytometric analysis (reference value: 93 %)", "type": "functional", "conditions": "read-out: Activity"}, "Mus musculus [24]": {"tested_on": "Mus musculus", "test": "In vivo inhibition of NFkappaB activation in LPS-induced BALB/c mouse model of endotoxin shock assessed as reduction in IL6 level in serum at 5 mg/kg, ip pretreated for 4 hrs followed by LPS stimulation for 1 hr by ELISA", "type": "functional, organism-based", "conditions": "time 5.0 hrs"}, "HCT-116 [25]": {"tested_on": "HCT-116", "test": "Induction of cell cycle arrest in human HCT-116 cells assessed as decrease in Cdc2 protein expression upto 10 uM incubated for 24 hrs by Western blot analysis", "type": "functional, cell-based"}, "HT-29 [26]": {"tested_on": "HT-29", "test": "Induction of apoptosis in human HT-29 cells assessed as necrotic cells at 5 uM incubated for 24 hrs by Annexin V-FITC/PI staining based flow cytometric analysis (reference value: 0.37 %)", "type": "functional"}, "HCT-116 [27]": {"tested_on": "HCT-116", "test": "Induction of apoptosis in human HCT-116 cells assessed as late apoptotic cells at 10 uM incubated for 24 hrs by Annexin V-FITC/PI staining based flow cytometric analysis (reference value: 2.9 %)", "type": "functional"}, "HCT-116 [28]": {"tested_on": "HCT-116", "test": "Induction of apoptosis in human HCT-116 cells assessed as necrotic cells at 0.5 uM incubated for 24 hrs by Annexin V-FITC/PI staining based flow cytometric analysis (reference value: 1.1 %)", "type": "functional"}}, "note": "Calls of active or inactive are those of the source. The calls are words filed in the database; no cut-off is given here.", "data": [{"smiles": "C[C@@H]1CC[C@H]2[C@H](C(=O)c3c(O)c([C@@]4(O)CC[C@@H](O)[C@H]5O[C@H]54)cn(O)c3=O)[C@H](C)C=C[C@@H]2C1", "values": [{"measurement": "inhibition", "setting": "RAW264.7", "result": "Dose-Dependent Effect"}, {"measurement": "Activity", "setting": "HT-29 [1]", "result": 23.75, "unit": "%"}, {"measurement": "Activity", "setting": "HT-29 [2]", "result": 0.22, "unit": "%"}, {"measurement": "Activity", "setting": "HCT-116 [3]", "result": 46.75, "unit": "%"}, {"measurement": "Activity", "setting": "HCT-116 [4]", "result": "Active"}, {"measurement": "inhibition", "setting": "Mus musculus [5]", "result": "Active"}, {"measurement": "inhibition", "setting": "[6]", "result": "Active"}, {"measurement": "Activity", "setting": "HT-29 [7]", "result": 0.1, "unit": "%"}, {"measurement": "Activity", "setting": "HCT-116 [8]", "result": "Active"}, {"measurement": "Activity", "setting": "HCT-116 [9]", "result": "Active"}, {"measurement": "Activity", "setting": "Mus musculus [10]", "result": "Active"}, {"measurement": "Activity", "setting": "HCT-116 [11]", "result": "Tde"}, {"measurement": "Activity", "setting": "HT-29 [12]", "result": 72.58, "unit": "%"}, {"measurement": "viability at 5 µM", "setting": "HT-29 [13]", "result": 49.5, "unit": "%"}, {"measurement": "inhibition", "setting": "HT-29 [14]", "result": "inactive"}, {"measurement": "IC50", "setting": "RKO", "result": 0.57, "unit": "µM"}, {"measurement": "Activity", "setting": "HT-29 [15]", "result": "Active"}, {"measurement": "Activity", "setting": "HCT-116 [16]", "result": 16.8, "unit": "%"}, {"measurement": "inhibition", "setting": "Mus musculus [17]", "result": "Active"}, {"measurement": "Activity", "setting": "Mus musculus [18]", "result": "Active"}, {"measurement": "Activity", "setting": "HT-29 [19]", "result": "Active"}, {"measurement": "inhibition", "setting": "Mus musculus [20]", "result": "Active"}, {"measurement": "Activity", "setting": "HT-29 [21]", "result": "Active"}, {"measurement": "inhibition", "setting": "[22]", "result": "Active"}, {"measurement": "viability at 1 µM", "setting": "HT-29 [23]", "result": 44.8, "unit": "%"}, {"measurement": "inhibition", "setting": "Mus musculus [24]", "result": "Active"}, {"measurement": "Activity", "setting": "HCT-116 [25]", "result": "Active"}, {"measurement": "Activity", "setting": "HT-29 [26]", "result": 0.29, "unit": "%"}, {"measurement": "Activity", "setting": "HCT-116 [27]", "result": 75, "unit": "%"}, {"measurement": "Activity", "setting": "HCT-116 [28]", "result": 2.54, "unit": "%"}]}]}
